Data published in US10947188B2, “Small molecule ferroptosis inducers” (THE TRUSTEES OF COLUMBIA UNIVERSITY IN THE CITY OF NEW YORK, priority 2016, dated 2021).
Where two headings read alike, the source gives them in different places. Where a SMILES comes first, the peptide text is derived from it. The star is where a group is joined. Cbz = O=C(OCc1ccccc1)*

Tested on: HT-1080
Assay: Modulatory profiling: Alamar Blue viability, lethal compound cotreated with death modulator (EC50, AUC)
Type: cell-based
Parameters: AUC, modulator HT.3MA / AUC, modulator HT.ALLN / AUC HT.ATA / AUC HT.ActD / AUC HT.BHA / AUC HT.BHT / AUC HT.BocD / AUC HT.CHX / AUC HT.Co2+ / AUC HT.DPQ / AUC HT.EGTA / AUC HT.Lmim / AUC HT.NAD+ / AUC HT.Nec-1 / AUC HT.SP600125 / AUC HT.TLCK / AUC HT.U0126: unit not given beside the values
Conditions: for AUC HT.ATA: HT-1080, modulator ATA; for AUC HT.ActD: HT-1080, modulator ActD; for AUC HT.BHA: HT-1080, modulator BHA; for AUC HT.BHT: HT-1080, modulator BHT; for AUC HT.BocD: HT-1080, modulator BocD; for AUC HT.CHX: HT-1080, modulator CHX; for AUC HT.Co2+: HT-1080, modulator Co2+; for AUC HT.CspA: HT-1080, modulator CspA; for AUC HT.DPQ: HT-1080, modulator DPQ; for AUC HT.Gd3+: HT-1080, modulator Gd3+; for AUC HT.LNAME: HT-1080, modulator LNAME; for AUC HT.Lmim: HT-1080, modulator Lmim; for AUC HT.NAD+: HT-1080, modulator NAD+; for AUC HT.NMMA: HT-1080, modulator NMMA; for AUC HT.Nec-1: HT-1080, modulator Nec-1; for AUC HT.Pepstatin: HT-1080, modulator Pepstatin; for AUC HT.SP600125: HT-1080, modulator SP600125; for AUC HT.TLCK: HT-1080, modulator TLCK; for AUC HT.U0126: HT-1080, modulator U0126; for HT.atoc (AUC) / HT.bCarotene (AUC) / HT.deferox (AUC) / HT.digoxin (AUC) / HT.trolox (AUC) / HT.zVAD (AUC) / EC50: HT-1080; for HT.atoc (AUC): modulator atoc; for HT.bCarotene (AUC): modulator bCarotene; for HT.deferox (AUC): modulator deferox; for HT.digoxin (AUC): modulator digoxin; for HT.trolox (AUC): modulator trolox; for HT.zVAD (AUC): modulator zVAD; for AUC, modulator HT.3MA / AUC, modulator HT.ALLN: HT-1080 cells, modulatory profile value (AUC); for AUC, modulator HT.3MA: lethal compound cotreated with modulator 3MA; for AUC, modulator HT.ALLN: lethal compound cotreated with modulator ALLN; for EC50: Homo sapiens, HT-1080, 48 h, 48 h

| Structure (SMILES) | AUC HT.ATA | AUC HT.ActD | AUC HT.BHA | AUC HT.BHT | AUC HT.BocD | AUC HT.CHX | AUC HT.Co2+ | AUC HT.CspA | AUC HT.DPQ | AUC HT.Gd3+ | AUC HT.LNAME | AUC HT.Lmim | AUC HT.NAD+ | AUC HT.NMMA | HT.atoc (AUC) | HT.bCarotene (AUC) | HT.deferox (AUC) | HT.digoxin (AUC) | HT.trolox (AUC) | HT.zVAD (AUC) | other results |
| --- | --- | --- | --- | --- | --- | --- | --- | --- | --- | --- | --- | --- | --- | --- | --- | --- | --- | --- | --- | --- | --- |
| COC(=O)c1ccc([C@@H]2c3[nH]c4ccccc4c3C[C@@H](C(=O)OC)N2C(=O)CCl)cc1 [RSL3, reference compound] | −0.04539 | −0.08579 | 0.3798 | 0.2444 | −0.01184 | −0.05099 | −0.1948 | −0.1268 | 0.1653 | −0.01265 | −0.01081 | 0.3302 | 0.007883 | −0.00551 | 0.4471 | −0.01346 | 0.3508 | −0.1463 | 0.4213 | −0.01599 | AUC HT.EGTA (HT-1080, modulator EGTA): 0.03696; AUC HT.Nec-1: 0.07095; AUC HT.Pepstatin: −0.01327; AUC HT.SP600125: −0.1319; AUC HT.TLCK: 0.3152; AUC HT.U0126: 0.3972; AUC, modulator HT.3MA: −0.07471; AUC, modulator HT.ALLN: −0.03802 |
| CC[C@]1(O)C[C@H]2CN(CCc3c([nH]c4ccccc34)[C@@](C(=O)OC)(c3cc4c(cc3OC)N(C=O)[C@H]3[C@@](O)(C(=O)OC)[C@H](OC(C)=O)[C@]5(CC)C=CCN6CC[C@]43[C@@H]65)C2)C1 [Vincristine] | 0.1304 | 0.05976 | −0.004754 | −0.01568 | 0.1401 | 0.08269 | 0.217 | −0.1876 | 0.01267 | −0.0009641 | 0.001779 | 0.1155 | 0.1699 | 0.004831 | 0.01853 | 0.01182 | 0.3217 | 0.142 | −0.01599 | 0.1172 | AUC HT.EGTA (HT-1080, modulator EGTA): 0.009231; AUC HT.Nec-1: 0.02188; AUC HT.Pepstatin: 0.000262; AUC HT.SP600125: 0.0008998; AUC HT.TLCK: −0.006394; AUC HT.U0126: 0.1926; AUC, modulator HT.3MA: 0.0299; AUC, modulator HT.ALLN: 0.1869 |
| CCCCNc1cc(C)nc(NCc2ccccc2)n1 [CIL18] | 0.001415 | 0.0184 | −0.08703 | −0.1394 | 0.06607 | 0.1179 | 0.1598 | −0.04827 | −0.01276 | −0.03302 | 0.01329 | −0.004987 | 0.09493 | −0.02918 | 0.1295 | −0.0001406 | −0.009951 | −0.004198 | −0.01205 | 0.0101 | AUC HT.EGTA (HT-1080, modulator EGTA): −0.009461; AUC, modulator HT.3MA: 0.01461; AUC, modulator HT.ALLN: 0.07303 |
| O=S(=O)(c1ccc2c(c1)C(=NO)c1cc(S(=O)(=O)N3CCCCC3)ccc1-2)N1CCCCC1 [CIL56, 2,7-bis(piperidin-1-ylsulfonyl)-9H-fluoren-9-one oxime] | −0.01939 | −0.124 | 0.1774 | 0.0146 | −0.0127 | −0.07234 | 0.01296 | 0.01564 | 0.06245 | −0.01542 | 0.05375 | 0.1017 | 0.02315 | −0.01475 | 0.2436 | 0.05423 | 0.1269 | −0.1402 | 0.1421 | 0.03666 | AUC HT.EGTA (HT-1080, modulator EGTA): 0.02378; effect of ferroptosis inhibitors (iron chelators and lipophilic antioxidants) on lethality in modulatory profiling (HT-1080 and BJeLR): suppression by canonical ferroptosis inhibitors; EC50 (DMSO): 443 nM; EC50 (cotreated with MEK inh U0126): 2810 nM; EC50 (cotreated with antioxidant Atoc): 2490 nM; EC50 (cotreated with antioxidant BHA): 2650 nM; EC50 (cotreated with antioxidant BHT): 1690 nM; EC50 (cotreated with antioxidant Trolox): 1310 nM; EC50 (cotreated with iron-chelator Deferoxamine): 1360 nM; EC50 (cotreated with iron-chelator Lmim): 1530 nM |
| CC[C@@]1(O)C(=O)OCc2c1cc1n(c2=O)Cc2cc3ccccc3nc2-1 [Camptothecin] | −0.00483 | −0.1287 | 0.04861 | −0.08411 | 0.03455 | 0.0562 | 0.1416 | −0.1552 | 0.008143 | 0.02887 | 0.01135 | 0.0722 | 0.06078 | 0.01978 | 0.004008 | 0.002837 | 0.1288 | 0.1442 | 0.01719 | 0.03249 | AUC HT.EGTA (HT-1080, modulator EGTA): 0.01652; AUC HT.Nec-1: 0.01102; AUC HT.Pepstatin: 0.005918; AUC HT.SP600125: 0.02319; AUC HT.TLCK: 0.04383; AUC HT.U0126: 0.0002717; AUC, modulator HT.3MA: 0.0192; AUC, modulator HT.ALLN: 0.03354 |
| C=C(C)[C@H]1Cc2c(ccc3c2O[C@@H]2COc4cc(OC)c(OC)cc4[C@@H]2C3=O)O1 [Rotenone] | 0.05899 | 0.1062 | −0.02184 | 0.02467 | 0.05103 | 0.07793 | 0.2003 | −0.1722 | −0.005403 | 0.01051 | −0.007377 | 0.1413 | 0.1563 | 0.007832 | 0.04769 | 0.003594 | 0.347 | 0.1617 | 0.003895 | 0.01972 | AUC HT.EGTA (HT-1080, modulator EGTA): 0.002258; AUC HT.Nec-1: 0.003921; AUC HT.Pepstatin: −0.02255; AUC HT.SP600125: −0.01964; AUC HT.TLCK: 0.0438; AUC HT.U0126: 0.1384; AUC, modulator HT.3MA: 0.06289; AUC, modulator HT.ALLN: 0.07973 |
| COC(C)(C)C#CC(=O)c1cccc2ccccc12 [CIL34] | 0.05661 | −0.03224 | 0.01628 | −0.1102 | −0.007476 | 0.0461 | 0.09926 | −0.02181 | 0.0333 | −0.02283 | −0.00517 | −0.002139 | −0.005535 | −0.003031 | 0.08125 | 0.001321 | 0.1115 | −0.01032 | −0.02993 | 0.007148 | AUC HT.EGTA (HT-1080, modulator EGTA): −0.002035; AUC, modulator HT.3MA: 0.1255; AUC, modulator HT.ALLN: 0.1551 |
| CC(C)C[C@@H](C=O)NC(=O)[C@H](CC(C)C)NC(=O)[C@H](CC(C)C)NC(=O)OCc1ccccc1 [MG132, reference compound] (Cbz-Leu-Leu-Leu-aldehyde) | 0.005768 | −0.06417 | −0.1238 | −0.1271 | 0.002051 | 0.04854 | −0.05705 | −0.3221 | −0.02406 | −0.011 | 5.1006E−05 | 0.001338 | 0.03798 | 0.01064 | 0.04884 | 7.0861E−05 | −0.1162 | 0.08352 | −0.01616 | −0.0992 | AUC HT.EGTA: 0.007775; AUC HT.Nec-1: −0.09728; AUC HT.Pepstatin: −0.02733; AUC HT.SP600125: −0.03431; AUC HT.TLCK: 0.01546; AUC HT.U0126: −0.071; AUC, modulator HT.3MA: −0.03392; AUC, modulator HT.ALLN: −0.2149 |
| C[C@@H]1C[C@@H]([C@H](O)CC2CC(=O)NC(=O)C2)C(=O)[C@@H](C)C1 [cycloheximide, Cycloheximide, reference compound] | −0.01057 | 0.06057 | 0.06705 | −0.03297 | 0.0413 | 0.1462 | 0.09948 | 0.04639 | 0.01425 | 0.002991 | 0.02188 | 0.1089 | 0.07007 | 0.01986 | 0.01667 | 0.008758 | 0.2041 | 0.0457 | 0.02127 | 0.0358 | AUC HT.EGTA (HT-1080, modulator EGTA): 0.01386; AUC HT.Nec-1: 0.03736; AUC HT.Pepstatin: 0.006163; AUC HT.SP600125: −0.003327; AUC HT.TLCK: 0.01836; AUC HT.U0126: 0.03848; AUC, modulator HT.3MA: 0.005512; AUC, modulator HT.ALLN: 0.3818 |
| CS[C@H]1SC[C@H]2C(=O)N(C)[C@@H](C(C)C)C(=O)OC[C@@H](NC(=O)c3cnc4ccccc4n3)C(=O)N[C@@H](C)C(=O)N(C)[C@@H]1C(=O)N(C)[C@@H](C(C)C)C(=O)OC[C@@H](NC(=O)c1cnc3ccccc3n1)C(=O)N[C@@H](C)C(=O)N2C [Echinomycin] | 0.04087 | 0.06604 | 0.02424 | −0.04076 | 0.07385 | 0.1436 | 0.1492 | −0.08426 | 0.006918 | 0.01526 | 0.01178 | 0.06784 | 0.178 | −0.0009733 | 0.1464 | −0.004968 | 0.1665 | 0.09969 | −0.02423 | 0.07367 | AUC HT.EGTA (HT-1080, modulator EGTA): 0.006916; AUC HT.Nec-1: 0.02093; AUC HT.Pepstatin: 0.006861; AUC HT.SP600125: 0.08228; AUC HT.TLCK: 0.006436; AUC HT.U0126: 0.01676; AUC, modulator HT.3MA: 0.3083; AUC, modulator HT.ALLN: 0.084 |
